Reference: PubChem BioAssay AID1259407 (Chemical Carcinogenesis Research Information System (CCRIS), 2018)
Calls of active or inactive are those of the source. The rule behind the calls is not given here.

Test system: CCRIS mutagenicity, Ames/micronucleus/aberration tests
Test: CCRIS mutagenicity studies
[1] = Test System: AMES SALMONELLA TYPHIMURIUM, Strain/Indicator: TA98, Metabolic Activation: NONE, Method: PREINCUBATION
[2] = Test System: AMES SALMONELLA TYPHIMURIUM, Strain/Indicator: TA100, Metabolic Activation: NONE, Method: PREINCUBATION
[3] = Test System: AMES SALMONELLA TYPHIMURIUM, Strain/Indicator: TA1535, Metabolic Activation: NONE, Method: PREINCUBATION
[4] = Test System: AMES SALMONELLA TYPHIMURIUM, Strain/Indicator: TA1537, Metabolic Activation: NONE, Method: PREINCUBATION
[5] = Test System: AMES SALMONELLA TYPHIMURIUM, Strain/Indicator: TA102, Metabolic Activation: NONE, Method: PREINCUBATION

For CC(C)[N+](C)(CCOC(=O)C1c2ccccc2Oc2ccccc21)C(C)C, the mutagenic call (End Point: IN VITRO CHROMOSOMAL ABERRATIONS, Test System: CHINESE HAMSTER OVARY CELLS, Metabolic Activation: NONE) was “inactive; negative”, the mutagenic call (End Point: IN VITRO CHROMOSOMAL ABERRATIONS, Test System: CHINESE HAMSTER OVARY CELLS, Metabolic Activation: RAT, LIVER, S-9, AROCLOR 1254) was “inactive; negative” and the mutagenic call (Test System: AMES SALMONELLA TYPHIMURIUM, Strain/Indicator: TA97, Metabolic Activation: HAMSTER, LIVER, S-9, AROCLOR 1254 (10 OR 30%), Method: PREINCUBATION) was “inactive; negative”. For the same molecule, the mutagenic call (Test System: AMES SALMONELLA TYPHIMURIUM, Strain/Indicator: TA97, Metabolic Activation: NONE, Method: PREINCUBATION) was “inactive; negative”, the mutagenic call (Test System: AMES SALMONELLA TYPHIMURIUM, Strain/Indicator: TA97, Metabolic Activation: RAT, LIVER, S-9, AROCLOR 1254 (10%), Method: PREINCUBATION) was “inactive; negative” and the mutagenic call (Test System: AMES SALMONELLA TYPHIMURIUM, Strain/Indicator: TA97, Metabolic Activation: RAT, LIVER, S-9, AROCLOR 1254 (30%), Method: PREINCUBATION) was “inactive; negative”. For the same molecule, the mutagenic call (Test System: AMES SALMONELLA TYPHIMURIUM, Strain/Indicator: TA98, Metabolic Activation: HAMSTER, LIVER, S-9, AROCLOR 1254 (10%), Method: PREINCUBATION) was “inactive; negative”, the mutagenic call (Test System: AMES SALMONELLA TYPHIMURIUM, Strain/Indicator: TA98, Metabolic Activation: HAMSTER, LIVER, S-9, AROCLOR 1254 (30%), Method: PREINCUBATION) was “inactive; negative” and the mutagenic call [1] was “inactive; negative”. The mutagenic call (Test System: AMES SALMONELLA TYPHIMURIUM, Strain/Indicator: TA98, Metabolic Activation: RAT, LIVER, S-9, AROCLOR 1254 (10%), Method: PREINCUBATION) was “inactive; negative”, the mutagenic call (Test System: AMES SALMONELLA TYPHIMURIUM, Strain/Indicator: TA98, Metabolic Activation: RAT, LIVER, S-9, AROCLOR 1254 (30%), Method: PREINCUBATION) was “inactive; negative” and the mutagenic call (Test System: AMES SALMONELLA TYPHIMURIUM, Strain/Indicator: TA100, Metabolic Activation: HAMSTER, LIVER, S-9, AROCLOR 1254 (10%), Method: PREINCUBATION) was “inactive; negative”. The mutagenic call (Test System: AMES SALMONELLA TYPHIMURIUM, Strain/Indicator: TA100, Metabolic Activation: HAMSTER, LIVER, S-9, AROCLOR 1254 (30%), Method: PREINCUBATION) was “inactive; negative”, the mutagenic call [2] was “inactive; negative” and the mutagenic call (Test System: AMES SALMONELLA TYPHIMURIUM, Strain/Indicator: TA100, Metabolic Activation: RAT, LIVER, S-9, AROCLOR 1254 (10%), Method: PREINCUBATION) was “inactive; negative”. The mutagenic call (Test System: AMES SALMONELLA TYPHIMURIUM, Strain/Indicator: TA100, Metabolic Activation: RAT, LIVER, S-9, AROCLOR 1254 (30%), Method: PREINCUBATION) was “inactive; negative”, the mutagenic call (Test System: AMES SALMONELLA TYPHIMURIUM, Strain/Indicator: TA1535, Metabolic Activation: HAMSTER, LIVER, S-9, AROCLOR 1254 (10%), Method: PREINCUBATION) was “inactive; negative” and the mutagenic call (Test System: AMES SALMONELLA TYPHIMURIUM, Strain/Indicator: TA1535, Metabolic Activation: HAMSTER, LIVER, S-9, AROCLOR 1254 (30%), Method: PREINCUBATION) was “inactive; negative”. The mutagenic call [3] was “inactive; negative”, the mutagenic call (Test System: AMES SALMONELLA TYPHIMURIUM, Strain/Indicator: TA1535, Metabolic Activation: RAT, LIVER, S-9, AROCLOR 1254 (10%), Method: PREINCUBATION) was “inactive; negative” and the mutagenic call (Test System: AMES SALMONELLA TYPHIMURIUM, Strain/Indicator: TA1535, Metabolic Activation: RAT, LIVER, S-9, AROCLOR 1254 (30%), Method: PREINCUBATION) was “inactive; negative”. The mutagenic call (Test System: AMES SALMONELLA TYPHIMURIUM, Strain/Indicator: TA1537, Metabolic Activation: HAMSTER, LIVER, S-9, AROCLOR 1254 (10%), Method: PREINCUBATION) was “inactive; negative”, the mutagenic call [4] was “inactive; negative” and the mutagenic call (Test System: AMES SALMONELLA TYPHIMURIUM, Strain/Indicator: TA1537, Metabolic Activation: RAT, LIVER, S-9, AROCLOR 1254 (10%), Method: PREINCUBATION) was “inactive; negative”.
In the case of CCOCCOC(C)=O, the mutagenic call [1] is reported as “inactive; negative”, the mutagenic call (Test System: AMES SALMONELLA TYPHIMURIUM, Strain/Indicator: TA98, Metabolic Activation: RAT LIVER S-9, PHENOBARBITAL AND BETA-NAPHTHOFLAVONE, Method: PREINCUBATION) is reported as “inactive; negative” and the mutagenic call [2] is reported as “inactive; negative”. For the same molecule, the mutagenic call (Test System: AMES SALMONELLA TYPHIMURIUM, Strain/Indicator: TA100, Metabolic Activation: RAT LIVER S-9, PHENOBARBITAL AND BETA-NAPHTHOFLAVONE, Method: PREINCUBATION) was “inactive; negative”, the mutagenic call [5] was “inactive; negative” and the mutagenic call (Test System: AMES SALMONELLA TYPHIMURIUM, Strain/Indicator: TA102, Metabolic Activation: RAT LIVER S-9, PHENOBARBITAL AND BETA-NAPHTHOFLAVONE, Method: PREINCUBATION) was “inactive; negative”. For the same molecule, the mutagenic call (Test System: AMES SALMONELLA TYPHIMURIUM, Strain/Indicator: TA104, Metabolic Activation: NONE, Method: PREINCUBATION) was “inactive; negative”, the mutagenic call (Test System: AMES SALMONELLA TYPHIMURIUM, Strain/Indicator: TA104, Metabolic Activation: RAT LIVER S-9, PHENOBARBITAL AND BETA-NAPHTHOFLAVONE, Method: PREINCUBATION) was “inactive; negative” and the mutagenic call [3] was “inactive; negative”. The mutagenic call (Test System: AMES SALMONELLA TYPHIMURIUM, Strain/Indicator: TA1535, Metabolic Activation: RAT LIVER S-9, PHENOBARBITAL AND BETA-NAPHTHOFLAVONE, Method: PREINCUBATION) was “inactive; negative”, the mutagenic call [4] was “inactive; negative” and the mutagenic call (Test System: AMES SALMONELLA TYPHIMURIUM, Strain/Indicator: TA1537, Metabolic Activation: RAT LIVER S-9, PHENOBARBITAL AND BETA-NAPHTHOFLAVONE, Method: PREINCUBATION) was “inactive; negative”. For the same molecule, the mutagenic call (Test System: E.COLI, Strain/Indicator: WP2UVRA/PKM101, Metabolic Activation: NONE, Method: PREINCUBATION) was “inactive; negative”, the mutagenic call (Test System: E.COLI, Strain/Indicator: WP2UVRA/PKM101, Metabolic Activation: RAT LIVER S-9, PHENOBARBITAL AND BETA-NAPHTHOFLAVONE, Method: PREINCUBATION) was “inactive; negative” and the mutagenic call (Test System: E.COLI, Strain/Indicator: WP2UVRA, Metabolic Activation: NONE, Method: PREINCUBATION) was “inactive; negative”. The mutagenic call (Test System: E.COLI, Strain/Indicator: WP2UVRA, Metabolic Activation: RAT LIVER S-9, PHENOBARBITAL AND BETA-NAPHTHOFLAVONE, Method: PREINCUBATION) was “inactive; negative”.
For Cc1cccc2nc3c(ccc4ccccc43)cc12, the mutagenic call (Test System: AMES SALMONELLA TYPHIMURIUM, Strain/Indicator: TA97A, Metabolic Activation: NONE, Method: PREINCUBATION) was “active; positive”, the mutagenic call [1] was “inactive; negative” and the mutagenic call [2] was “inactive; negative”. For the same molecule, the mutagenic call [5] was “active; positive”.
